Reference: US10450378B2, “Cytotoxic and anti-mitotic compounds, and methods of using the same” (priority 2014, dated 2019)
Where two headings read alike, the source gives them in different places.

Key:
[1] = test system: Human T-cell leukemia cell line Jurkat; experiment: Cellular cytotoxicity of compounds of Formula I, Example 3.1; format: cell-based; details: for EC50: Homo sapiens, Jurkat, read-out: EC50 (nM) Jurkat
Method: (§1) Compounds were tested on one or more of Human T-cell leukemia cell line Jurkat (ATCC: TIB-152); Human breast cancer cell lines HCC1954 (ATCC: CRL-2338) and JIMT-1 (DSMZ: ACC 589); Human Pancreatic cell line BxPC-3 (ATCC: CRL.1687), Human ovarian adenocarcinoma cell line SK-OV-3 (ATCC: HTB-77) and Human gastric carcinoma cell line NCI-N87 (ATCC: CRL. 5822); to assess their cytotoxicity.
(§2) Briefly, cells were obtained from commercial sources and cultured as described in the product sheet provided. Cells were removed from their culture vessels and the resulting cell suspension was counted using a ViCell (Beckman Coulter), then seeded at 25,000 cells/mL (2,500 cells/well) in Costar 3904 black walled, flat bottomed 96-well plates (cells were seeded in the inner 60 wells of 96-well TC plates, and outer edge wells filled with water). Adherent cell lines were incubated for one night at 37° C./5% CO2 atmosphere to allow the cells to attach to the microtiter plate surface, while suspension (Jurkat) cells were plated immediately before use. Cytotoxins were dissolved and serially diluted in dimethyl sulfoxide and then the solutions were added to complete growth medium at five-times the desired maximum final concentration. The cytotoxins were then titrated in growth medium, normally 1:3, over eight steps. A control with no test article present (growth medium alone) was included on each microtiter plate in sextuplicate. The prepared toxin titrations were added (25 μL/well) in triplicate to each cell line assayed. The cells and titrations were incubated at 37° C./5% CO2 for three nights (Jurkat) and five nights (all other cell lines). After the incubation, cell viability was measured using CellTiter-Glo® by adding 30 μL of prepared CellTiter-Glo® reagent to each assay well. The mixtures were incubated for at least twenty minutes in the dark prior to measuring emitted luminescence using a microplate luminometer (500 ms integration time). The collected relative luminescence units (RLU) were converted to % cytotoxicity using the growth medium alone control mentioned above (% Cytotoxicity=1-[well RLU/average medium alone control RLU]×100%).

Jurkat cell line = experiment: Cytotoxicity of compounds of Formula I, Example 3 (CellTiter-Glo); format: cell-based, Human; details: for EC50: Homo sapiens, 72 h
Method: Compounds were tested on Jurkat and HCC1954 cell lines to assess their cytotoxicity. Compounds were titrated 1:3 starting at various concentrations (30 nM to 1000 nM). Control cytotoxin HTI-286 (see, e.g., U.S. Pat. No. 7,579,323) was also titrated 1:3 across starting with a 30 nM concentration. Plates were incubated for 3 days. Cell viability was quantified using 30 μL/well of 1× CellTiter-Glo reagent.
Each cell line was grown in its respective growth medium until seeding day. Cells were removed from their culture vessels and the resulting cell suspension was counted using the ViCell. Cells were then diluted in their growth medium to 25000/mL such that 100 μL/well=2500 cells/well. Each cell line was seeded in the inner 60 wells of 96-well black walled TC plates, outer wells filled with water. HCC1954 were seeded a day prior to assay set up. Cytotoxins were diluted as described below a 5× dose-response of each compound was prepared using RPMI+10% FBS in a deep-well 96-well plate. This “master” dilution plate was used for each cell line. 25 μL of the 5× dose responses was spiked into each cell line in triplicate. The plates were returned to the incubator and were incubated for 3 nights. After the 3 nights, cell viability was quantified using 30 μL/well of 1× CellTiter-glo reagent. After at least 10 minutes of incubation, the luminescence was measured using the SpectraMax (500 ms integration).

[2] = test system: Human gastric carcinoma cell line NCI-N87; experiment: Cellular cytotoxicity of compounds of Formula I, Example 3.1; format: cell-based; details: five nights, CellTiter-Glo
Method: as §1, §2

[3] = test system: Human Pancreatic cell line BxPC-3; experiment: as above; format: cell-based; details: five nights, CellTiter-Glo
Method: as §1, §2

[4] = 3 days incubation, CellTiter-Glo, read-out: EC50

| Structure (SMILES) | EC50 ([1]; three nights, CellTiter-Glo) [nM] | EC50 (Jurkat cell line; [4]) [nM] | EC50 [1] [nM] | EC50 [2] [nM] | EC50 [3] [nM] | other results |
| --- | --- | --- | --- | --- | --- | --- |
| CC[C@H](C)[C@@H]([C@@H](CC(=O)N1CCC[C@H]1[C@H](OC)[C@@H](C)C(=O)NS(=O)(=O)c1ccc(NC(=O)C(F)(F)F)cc1)OC)N(C)C(=O)[C@@H](NC(=O)[C@H](C(C)C)N(C)C)C(C)C [Compound 4, (S)-2-((S)-2-(Dimethylamino)-3-methylbutanamido)-N-((3R,4S,5S)-3-methoxy-1-((S)-2-((1R,2R)-1-methoxy-2-methyl-3-oxo-3-(4-(2,2,2-trifluoroacetamido)phenylsulfonamido)propyl)pyrrolidin-1-yl)-5-methyl-1-oxoheptan-4-yl)-N,3-dimethylbutanamide] | 18.1 | 18.1 | – | – | – | – |
| CC[C@H](C)[C@@H]([C@@H](CC(=O)N1CCC[C@H]1[C@H](OC)[C@@H](C)C(=O)NS(=O)(=O)Cc1ccc(NC(=O)C(F)(F)F)cc1)OC)N(C)C(=O)[C@@H](NC(=O)[C@H](C(C)C)N(C)C)C(C)C [Compound 7, (S)-2-((S)-2-(Dimethylamino)-3-methylbutanamido)-N-((3R,4S,5S)-3-methoxy-1-((S)-2-((1R,2R)-1-methoxy-2-methyl-3-oxo-3-((4-(2,2,2-trifluoroacetamido)phenyl)methylsulfonamido)propyl)pyrrolidin-1-yl)-5-methyl-1-oxoheptan-4-yl)-N,3-dimethylbutanamide] | 29.9 | 29.9 | – | – | – | – |
| CC[C@H](C)[C@@H]([C@@H](CC(=O)N1CCC[C@H]1[C@H](OC)[C@@H](C)C(=O)N[C@@H](Cc1ccccc1)C(=O)NS(=O)(=O)c1ccc(NC(=O)C(F)(F)F)cc1)OC)N(C)C(=O)[C@@H](NC(=O)[C@H](C(C)C)N(C)C)C(C)C [Compound 10, (S)-2-((S)-2-(Dimethylamino)-3-methylbutanamido)-N-((3R,4S,5S)-3-methoxy-1-((S)-2-((1R,2R)-1-methoxy-2-methyl-3-oxo-3-((S)-1-oxo-3-phenyl-1-(4-(2,2,2-trifluoroacetamido)phenylsulfonamido)propan-2-ylamino)propyl)pyrrolidin-1-yl)-5-methyl-1-oxoheptan-4-yl)-N,3-dimethylbutanamide] | – | – | 45.3 | – | – | EC50 (Jurkat cell line): 45.3 nM |
| CC[C@H](C)[C@@H]([C@@H](CC(=O)N1CCC[C@H]1[C@H](OC)[C@@H](C)C(=O)N[C@@H](Cc1ccccc1)C(=O)NS(=O)(=O)c1ccc(N)cc1)OC)N(C)C(=O)[C@@H](NC(=O)[C@H](C(C)C)N(C)C)C(C)C [Compound 11, (S)-N-((3R,4S,5S)-1-((S)-2-((1R,2R)-3-((S)-1-(4-Aminophenylsulfonamido)-1-oxo-3-phenylpropan-2-ylamino)-1-methoxy-2-methyl-3-oxopropyl)pyrrolidin-1-yl)-3-methoxy-5-methyl-1-oxoheptan-4-yl)-2-((S)-2-(dimethylamino)-3-methylbutanamido)-N,3-dimethylbutanamide] | 52 | 52 | – | – | – | – |
| CC[C@H](C)[C@@H]([C@@H](CC(=O)N1CCC[C@H]1[C@H](OC)[C@@H](C)C(=O)N[C@@H](Cc1ccccc1)C(=O)NS(=O)(=O)Cc1ccc(NC(=O)C(F)(F)F)cc1)OC)N(C)C(=O)[C@@H](NC(=O)[C@H](C(C)C)N(C)C)C(C)C [Compound 13, (S)-2-((S)-2-(Dimethylamino)-3-methylbutanamido)-N-((3R,4S,5S)-3-methoxy-1-((S)-2-((1R,2R)-1-methoxy-2-methyl-3-oxo-3-((S)-1-oxo-3-phenyl-1-(4-(2,2,2-trifluoroacetamido)phenylmethylsulfonamido)propan-2-ylamino)propyl)pyrrolidin-1-yl)-5-methyl-1-oxoheptan-4-yl)-N,3-dimethylbutanamide] | – | – | 20.9 | – | – | EC50 (Jurkat cell line): 20.9 nM |
| CC[C@H](C)[C@@H]([C@@H](CC(=O)N1CCC[C@H]1[C@H](OC)[C@@H](C)C(=O)NS(=O)(=O)Cc1ccc(CNC(=O)C(F)(F)F)cc1)OC)N(C)C(=O)[C@@H](NC(=O)[C@H](C(C)C)N(C)C)C(C)C [Compound 25, (S)-2-((S)-2-(Dimethylamino)-3-methylbutanamido)-N-((3R,4S,5S)-3-methoxy-1-((S)-2-((1R,2R)-1-methoxy-2-methyl-3-oxo-3-(((4-((2,2,2-trifluoroacetamido)methyl)phenyl)methyl)sulfonamido)propyl)pyrrolidin-1-yl)-5-methyl-1-oxoheptan-4-yl)-N,3-dimethylbutanamide] | 34.3 | – | – | > 100 | > 100 | – |
| CC[C@H](C)[C@@H]([C@@H](CC(=O)N1CCC[C@H]1[C@H](OC)[C@@H](C)C(=O)N[C@@H](Cc1ccccc1)C(=O)NS(=O)(=O)Cc1ccc(CNC(=O)C(F)(F)F)cc1)OC)N(C)C(=O)[C@@H](NC(=O)[C@H](C(C)C)N(C)C)C(C)C [Compound 27, (S)-2-((S)-2-(Dimethylamino)-3-methylbutanamido)-N-((3R,4S,5S)-3-methoxy-1-((S)-2-((1R,2R)-1-methoxy-2-methyl-3-oxo-3-(((S)-1-oxo-3-phenyl-1-(((4-((2,2,2-trifluoroacetamido)methyl)phenyl)methyl)sulfonamido)propan-2-yl)amino)propyl)pyrrolidin-1-yl)-5-methyl-1-oxoheptan-4-yl)-N,3-dimethylbutanamide] | – | – | 24.2 | 17.4 | 19 | – |
| CC[C@H](C)[C@@H]([C@@H](CC(=O)N1CCC[C@H]1[C@H](OC)[C@@H](C)C(=O)N[C@@H](Cc1ccccc1)C(=O)NS(=O)(=O)Cc1ccc(CN)cc1)OC)N(C)C(=O)[C@@H](NC(=O)[C@H](C(C)C)N(C)C)C(C)C [Compound 28, (S)-N-((3R,4S,5S)-1-((S)-2-((1R,2R)-3-(((S)-1-(((4-(Aminomethyl)phenyl)methyl)sulfonamido)-1-oxo-3-phenylpropan-2-yl)amino)-1-methoxy-2-methyl-3-oxopropyl)pyrrolidin-1-yl)-3-methoxy-5-methyl-1-oxoheptan-4-yl)-2-((S)-2-(dimethylamino)-3-methylbutanamido)-N,3-dimethylbutanamide] | ~100 | – | – | > 100 | > 100 | – |
| CC[C@H](C)[C@@H]([C@@H](CC(=O)N1CCC[C@H]1[C@H](OC)[C@@H](C)C(=O)NS(=O)(=O)c1ccc(C(=O)OC)cc1)OC)N(C)C(=O)[C@@H](NC(=O)[C@H](C(C)C)N(C)C)C(C)C [Compound 34, Methyl 4-(N-((2R,3R)-3-((S)-1-((3R,4S,5S)-4-((S)-2-((S)-2-(Dimethylamino)-3-methylbutanamido)-N,3-dimethylbutanamido)-3-methoxy-5-methylheptanoyl)pyrrolidin-2-yl)-3-methoxy-2-methylpropanoyl)sulfamoyl)benzoate] | > 100 | – | – | > 300 | > 300 | – |
| CN[C@H](C(=O)N[C@H](C(=O)N(C)[C@H](/C=C(\C)C(=O)O)C(C)C)C(C)(C)C)C(C)(C)c1ccccc1 [HTI-286, reference compound] | – | – | – | – | – | Killing by control cytotoxin ([1]; stated for all cell lines of Example 3.1): successfully killed all cell lines at an expected concentration; Killing by control cytotoxin (Jurkat cell line; titrated 1:3 starting with 30 nM): successfully killed Jurkats at an expected concentration |
